Assay results published in ChEMBL document CHEMBL5236586, “Novel ginsenoside derivatives induce apoptosis in HepG-2 cells via the MDM2-p53 signaling pathway” (Bioorg Med Chem Lett, 2022).
pIC50: −log10 of the molar value. Activity calls are given as the source filed them. No cut-off for these calls is given here.

Tests used:
PC-3 = assay: Antiproliferative activity against human PC-3 cells assessed as inhibition of cell proliferation by MTT assay; format: functional, cell-based
A549 = assay: Antiproliferative activity against human A549 cells assessed as inhibition of cell proliferation by MTT assay; format: functional, cell-based
HepG2 [1] = assay: Potency index, ratio of PD IC50 to test compound IC50 for antiproliferative activity against human HepG2 cells assessed as inhibition of cell proliferation by MTT assay; format: functional
[2] = Cytotoxicity against mouse L929 cells assessed as inhibition of cell proliferation by MTT assay; format: toxicity, cell-based
HepG2 [3] = assay: Antiproliferative activity against human HepG2 cells assessed as inhibition of cell proliferation by MTT assay; format: functional, cell-based
HepG2 [4] = assay: Antiproliferative activity against human HepG2 cells assessed as inhibition of cell growth; format: functional, cell-based
HepG2 [5] = assay: Effect on cell morphology in human HepG2 cells at 5 uM by DAPI staining based analysis; format: functional
HepG2 [6] = assay: Induction of apoptosis in human HepG2 cells assessed as increase in cleaved caspase-3 level at 1.25 to 5 uM incubated for 12 hrs by Western blot analysis; format: functional, cell-based; conditions: dose 1.25-5 µM
HepG2 [7] = assay: Induction of apoptosis in human HepG2 cells assessed as decrease in Bcl-2 expression level at 1.25 to 5 uM incubated for 12 hrs by Western blot analysis; format: functional, cell-based; conditions: dose 1.25-5 µM
HepG2 [8] = assay: Induction of apoptosis in human HepG2 cells assessed as decrease in caspase-3 expression level at 1.25 to 5 uM incubated for 12 hrs by Western blot analysis; format: functional, cell-based; conditions: dose 1.25-5 µM
HepG2 [9] = assay: Induction of apoptosis in human HepG2 cells at 1.25 to 5 uM by DAPI staining based analysis; format: functional, cell-based; conditions: dose 1.25-5 µM
[10] = target: E3 ubiquitin-protein ligase Mdm2 (Homo sapiens) (UniProt Q00987); assay: Inhibition of MDM2 in human HepG2 cells assessed as increase in p53 protein level at 1.25 to 5 uM incubated for 12 hrs by Western blot analysis; format: cell-based; conditions: dose 1.25-5 µM
E3 ubiquitin-protein ligase Mdm2 (Homo sapiens), sequence (Q00987 whole entry, looked up): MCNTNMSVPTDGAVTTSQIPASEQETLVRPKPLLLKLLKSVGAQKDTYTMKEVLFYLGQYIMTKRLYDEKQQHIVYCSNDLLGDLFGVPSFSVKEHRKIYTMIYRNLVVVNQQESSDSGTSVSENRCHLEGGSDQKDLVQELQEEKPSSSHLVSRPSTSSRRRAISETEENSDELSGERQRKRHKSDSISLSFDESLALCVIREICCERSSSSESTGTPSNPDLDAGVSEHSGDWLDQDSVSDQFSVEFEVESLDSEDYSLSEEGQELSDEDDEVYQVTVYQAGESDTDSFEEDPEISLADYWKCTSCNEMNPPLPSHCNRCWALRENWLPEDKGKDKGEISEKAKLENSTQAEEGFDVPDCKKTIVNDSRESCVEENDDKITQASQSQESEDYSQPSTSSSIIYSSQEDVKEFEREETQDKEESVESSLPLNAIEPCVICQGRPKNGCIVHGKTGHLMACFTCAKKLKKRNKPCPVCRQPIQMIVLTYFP

HepG2 [11] = assay: Effect on cell morphology in human HepG2 cells assessed as cell shrinkage at 1.25 to 5 uM by DAPI staining based analysis; format: functional; conditions: dose 1.25-5 µM
HepG2 [12] = assay: Induction of apoptosis in human HepG2 cells assessed as increase in cleaved PARP level at 1.25 to 5 uM incubated for 12 hrs by Western blot analysis; format: functional, cell-based; conditions: dose 1.25-5 µM
HepG2 [13] = assay: Induction of apoptosis in human HepG2 cells assessed as increase in Bax level at 1.25 to 5 uM incubated for 12 hrs by Western blot analysis; format: functional, cell-based; conditions: dose 1.25-5 µM
[14] = target: E3 ubiquitin-protein ligase Mdm2 (Homo sapiens) (UniProt Q00987); assay: Inhibition of MDM2 in human HepG2 cells assessed as decrease in MDM2 protein level at 1.25 to 5 uM incubated for 12 hrs by Western blot analysis; format: cell-based; conditions: dose 1.25-5 µM

Row | SMILES | pIC50 (PC-3) | pIC50 (A549) | Ratio IC50 (HepG2 [1]) | pIC50 [2] | pIC50 (HepG2 [3]) | further results
1 | CC1(C)CCC[C@](C)([C@@H]2CC[C@]3(C)[C@@H]2[C@H](O)CC2[C@@]4(C)CC[C@H](OC(=O)CSc5nc(-c6ccc(C(F)(F)F)cc6)c(C#N)c(=O)[nH]5)C(C)(C)[C@@H]4CC[C@]23C)O1 (some centres not stated) | 5.06 | 5.15 | 21 | 4.16 | 5.50 | 
2 | N#Cc1c(-c2cn(-c3ccccc3)nc2-c2cc3ccccc3o2)[nH]c(NN)nc1=O |  |  |  |  |  | pIC50 (HepG2 [4]): 4.90
3 | O=c1[nH]cc(F)c(=O)[nH]1 [FLUOROURACIL] |  | 4.54 |  | < 4.00 |  | Activity (HepG2 [5]): inactive
4 | CC(C)c1ccc(-c2nc(SCC(=O)O[C@H]3CC[C@@]4(C)[C@@H](CC[C@]5(C)[C@H]4C[C@@H](O)[C@@H]4C([C@@]6(C)CCCC(C)(C)O6)CC[C@]45C)C3(C)C)[nH]c(=O)c2C#N)cc1 (some centres not stated) | 5.15 | 5.16 | 28 | 4.23 | 5.67 | Activity (HepG2 [6]): Active; Activity (HepG2 [7]): Active; Activity (HepG2 [8]): Active; Activity (HepG2 [9]): Active; Activity [10]: Active; Activity (HepG2 [11]): Active; Activity (HepG2 [12]): Active; Activity (HepG2 [13]): Active; Activity [14]: Active
5 | Cc1ccc(-c2nc(SCC(=O)O[C@H]3CC[C@@]4(C)[C@@H](CC[C@]5(C)[C@H]4C[C@@H](O)[C@@H]4[C@H]([C@@]6(C)CCCC(C)(C)O6)CC[C@]45C)C3(C)C)[nH]c(=O)c2C#N)cc1 | 5.11 | 5.17 | 12 | 4.11 | 5.35 | 
6 | CC1(C)CCC[C@](C)([C@@H]2CC[C@]3(C)[C@@H]2[C@H](O)C[C@H]2[C@@]4(C)CC[C@H](OC(=O)CSc5nc6ccc(Cl)cc6c(=O)[nH]5)C(C)(C)[C@@H]4CC[C@]23C)O1 | < 4.00 | < 4.00 |  | < 4.00 | 4.09 | 
